Columns and labels:
PI3Kγ = molecular target: T1, PI3Kγ (Homo sapiens, UniProt P48736); assay: In vitro PI3K inhibition assay (ADP-Glo kinase assay), PI3Kγ; type: biochemical; settings: for IC50: mean of two independent experiments; for Fold Selectivity γ/δ: ratio IC50 PI3Kγ / IC50 PI3Kδ
T1 construct: purchased Merck Millipore
Protocol: (§1) All compounds were tested in a biochemical assay that measured the inhibition of phosphatidylinositol […] production by PI3K isoforms using the ADP-Glo kinase assay (Promega). In addition, the effects of synthesized compounds on B cell proliferation were measured.
(§2) The potency and selectivity of compounds were assessed by measuring the ability of PI3K kinases to convert ATP to ADP during an enzymatic reaction in the presence of decreasing doses of tested compounds. The experiments were carried out using the ADP-Glo kinase assay kit (Promega), according to the manufacturer’s protocol. PI3Kα, PI3Kβ, PI3Kδ, and PI3Kγ have been purchased from Merck Millipore and phosphoinositol-4,5-bisphosphate (PIP2) lipid vesicles with phosphoserine from ThermoFisher Scientific were used as a substrate in the enzymatic reaction.
(§3) After the reaction, the ADP-Glo reagent and the kinase detection reagent were added sequentially with 40 min of incubation (25 °C, 600 rpm) after adding each reagent. Finally, the luminescence intensity was measured and the IC50 was calculated using GraphPad Prism 7 software. The presented results are the mean value of IC50 from at least two independent experiments.

PI3Kδ = molecular target: T2, PI3Kδ (Homo sapiens, UniProt O00329); assay: In vitro PI3K inhibition assay (ADP-Glo kinase assay), PI3Kδ; type: biochemical; settings: mean of two independent experiments
T2 construct: purchased Merck Millipore
T2 sequence (O00329 whole entry, looked up): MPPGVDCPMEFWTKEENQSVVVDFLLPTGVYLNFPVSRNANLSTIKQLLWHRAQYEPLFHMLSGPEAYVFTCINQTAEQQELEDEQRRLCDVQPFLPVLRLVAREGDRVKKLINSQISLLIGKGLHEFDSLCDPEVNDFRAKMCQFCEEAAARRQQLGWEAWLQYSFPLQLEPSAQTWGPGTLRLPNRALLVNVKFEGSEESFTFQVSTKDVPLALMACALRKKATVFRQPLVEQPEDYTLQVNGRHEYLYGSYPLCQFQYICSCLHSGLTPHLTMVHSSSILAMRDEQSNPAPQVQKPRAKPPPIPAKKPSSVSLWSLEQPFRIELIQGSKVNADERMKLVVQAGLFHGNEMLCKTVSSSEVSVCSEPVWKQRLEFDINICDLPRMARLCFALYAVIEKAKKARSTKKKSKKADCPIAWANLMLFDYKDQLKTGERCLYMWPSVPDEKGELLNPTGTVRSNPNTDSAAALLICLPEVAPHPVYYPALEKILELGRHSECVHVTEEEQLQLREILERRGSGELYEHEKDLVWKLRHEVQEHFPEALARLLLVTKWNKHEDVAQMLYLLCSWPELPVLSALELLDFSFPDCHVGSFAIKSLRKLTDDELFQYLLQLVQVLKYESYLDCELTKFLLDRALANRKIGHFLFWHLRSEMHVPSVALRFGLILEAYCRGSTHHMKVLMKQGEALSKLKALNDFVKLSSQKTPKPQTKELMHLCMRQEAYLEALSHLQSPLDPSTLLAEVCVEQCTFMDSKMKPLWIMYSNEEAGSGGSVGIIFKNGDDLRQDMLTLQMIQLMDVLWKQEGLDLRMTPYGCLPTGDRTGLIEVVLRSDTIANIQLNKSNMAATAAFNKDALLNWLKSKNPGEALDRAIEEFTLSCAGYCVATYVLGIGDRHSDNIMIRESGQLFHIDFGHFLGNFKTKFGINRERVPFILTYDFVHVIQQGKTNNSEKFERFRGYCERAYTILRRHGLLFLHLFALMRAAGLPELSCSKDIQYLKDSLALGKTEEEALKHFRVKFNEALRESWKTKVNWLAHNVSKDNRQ
Protocol: as §1, §2, §3

T1 sequence (P48736 whole entry): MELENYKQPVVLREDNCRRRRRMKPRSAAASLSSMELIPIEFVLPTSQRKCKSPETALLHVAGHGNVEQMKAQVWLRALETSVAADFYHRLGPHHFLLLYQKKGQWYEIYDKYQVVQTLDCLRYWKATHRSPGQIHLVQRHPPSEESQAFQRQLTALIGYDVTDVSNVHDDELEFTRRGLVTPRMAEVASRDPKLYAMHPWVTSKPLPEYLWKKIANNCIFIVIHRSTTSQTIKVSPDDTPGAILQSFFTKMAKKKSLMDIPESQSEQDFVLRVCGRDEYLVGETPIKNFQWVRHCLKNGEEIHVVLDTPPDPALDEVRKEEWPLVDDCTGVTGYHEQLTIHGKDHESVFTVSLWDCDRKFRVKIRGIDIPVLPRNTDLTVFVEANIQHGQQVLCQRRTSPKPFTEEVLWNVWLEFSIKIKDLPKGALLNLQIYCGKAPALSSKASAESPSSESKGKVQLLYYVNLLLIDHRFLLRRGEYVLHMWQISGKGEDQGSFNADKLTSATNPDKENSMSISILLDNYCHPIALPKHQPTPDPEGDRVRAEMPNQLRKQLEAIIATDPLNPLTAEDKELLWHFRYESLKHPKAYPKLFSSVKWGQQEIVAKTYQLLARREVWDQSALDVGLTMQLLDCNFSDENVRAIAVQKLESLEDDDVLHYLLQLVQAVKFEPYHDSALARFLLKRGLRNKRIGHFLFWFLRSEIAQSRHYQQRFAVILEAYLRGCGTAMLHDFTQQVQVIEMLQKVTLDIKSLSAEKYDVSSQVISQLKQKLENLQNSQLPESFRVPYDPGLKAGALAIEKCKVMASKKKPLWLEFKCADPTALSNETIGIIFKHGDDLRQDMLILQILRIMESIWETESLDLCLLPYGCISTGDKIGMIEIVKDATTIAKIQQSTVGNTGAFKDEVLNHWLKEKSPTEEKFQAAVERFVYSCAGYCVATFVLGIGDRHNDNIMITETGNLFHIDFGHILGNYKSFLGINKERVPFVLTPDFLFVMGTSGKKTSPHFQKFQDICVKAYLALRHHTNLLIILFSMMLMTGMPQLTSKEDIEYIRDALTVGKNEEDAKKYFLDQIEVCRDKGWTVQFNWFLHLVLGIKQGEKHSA

Row | Compound | IC50 (PI3Kγ) | Fold Selectivity γ/δ (PI3Kγ) | IC50 (PI3Kδ)
1 | CC(C)(C)N1CCN(Cc2cc3nc(-n4c(C(F)(F)F)nc5ccccc54)cc(N4CCOCC4)n3n2)CC1 [Compound 9, 1-{2-[(4-tert-butylpiperazin-1-yl)methyl]-7-(morpholin-4-yl)pyrazolo[1,5-a]pyrimidin-5-yl}-2-(trifluoromethyl)-1H-benzimidazole] | 135 µM | 149 | 907 nM
2 | OCC1CCCN1Cc1cc2nc(-n3c(C(F)F)nc4ccccc43)cc(N3CCOCC3)n2n1 (stereo not drawn) [Compound 19, [1-({5-[2-(difluoromethyl)-1H-1,3-benzimidazol-1-yl]-7-(morpholin-4-yl)pyrazolo[1,5-a]pyrimidin-2-yl}methyl)pyrrolidin-2-yl]methanol] | 4.47 µM | 4.2 | 1070 nM
3 | NC1CCN(Cc2cc3nc(-n4c(C(F)F)nc5ccccc54)cc(N4CCOCC4)n3n2)C1 (stereo not drawn) [Compound 20, 1-({5-[2-(difluoromethyl)-1H-1,3-benzimidazol-1-yl]-7-(morpholin-4-yl)pyrazolo[1,5-a]pyrimidin-2-yl}methyl)pyrrolidin-3-amine] | 22.1 µM | 12 | 1890 nM
4 | O[C@H]1CCN(Cc2cc3nc(-n4c(C(F)F)nc5ccccc54)cc(N4CCOCC4)n3n2)C1 [Compound 21, (3S)-1-({5-[2-(difluoromethyl)-1H-1,3-benzimidazol-1-yl]-7-(morpholin-4-yl)pyrazolo[1,5-a]pyrimidin-2-yl}methyl)pyrrolidin-3-ol] | 10.9 µM | 11 | 956 nM
5 | O[C@@H]1CCN(Cc2cc3nc(-n4c(C(F)F)nc5ccccc54)cc(N4CCOCC4)n3n2)C1 [Compound 22, (3R)-1-({5-[2-(difluoromethyl)-1H-1,3-benzimidazol-1-yl]-7-(morpholin-4-yl)pyrazolo[1,5-a]pyrimidin-2-yl}methyl)pyrrolidin-3-ol] | 8.42 µM | 8.6 | 979 nM
6 | FC(F)c1nc2ccccc2n1-c1cc(N2CCOCC2)n2nc(CN3CCOCC3)cc2n1 [Compound 23, 2-(difluoromethyl)-1-[7-(morpholin-4-yl)-2-(morpholin-4-ylmethyl)pyrazolo[1,5-a]pyrimidin-5-yl]-1H-1,3-benzimidazole] | 1.38 µM | 10 | 135 nM
7 | C[C@H]1COCCN1Cc1cc2nc(-n3c(C(F)F)nc4ccccc43)cc(N3CCOCC3)n2n1 [Compound 24, 2-(difluoromethyl)-1-(2-{[(3S)-3-methylmorpholin-4-yl]methyl}-7-(morpholin-4-yl)pyrazolo[1,5-a]pyrimidin-5-yl)-1H-1,3-benzimidazole] | 0.588 µM | 2.3 | 254 nM
8 | C[C@@H]1COCCN1Cc1cc2nc(-n3c(C(F)F)nc4ccccc43)cc(N3CCOCC3)n2n1 [Compound 25, 2-(difluoromethyl)-1-(2-{[(3R)-3-methylmorpholin-4-yl]methyl}-7-(morpholin-4-yl)pyrazolo[1,5-a]pyrimidin-5-yl)-1H-1,3-benzimidazole] | 1.97 µM | 3.0 | 647 nM
9 | CCOC(=O)C1CCCN(Cc2cc3nc(-n4c(C(F)F)nc5ccccc54)cc(N4CCOCC4)n3n2)C1 (stereo not drawn) [Compound 26, 1-({5-[2-(difluoromethyl)-1H-1,3-benzodiazol-1-yl]-7-(morpholin-4-yl)pyrazolo[1,5-a]pyrimidin-2-yl}methyl)piperidine-3-carboxylate] | 4.28 µM | 21 | 203 nM
10 | FC(F)c1nc2ccccc2n1-c1cc(N2CCOCC2)n2nc(CNC3CCOCC3)cc2n1 [Compound 27, N-({5-[2-(difluoromethyl)-1H-1,3-benzimidazol-1-yl]-7-(morpholin-4-yl)pyrazolo[1,5-a]pyrimidin-2-yl}methyl)oxan-4-amine] | 20.5 µM | 11 | 1810 nM
11 | FC(F)c1nc2ccccc2n1-c1cc(N2CCOCC2)n2nc(CN3CCC(F)(F)CC3)cc2n1 [Compound 28, 2-(difluoromethyl)-1-{2-[(4,4-difluoropiperidin-1-yl)methyl]-7-(morpholin-4-yl)pyrazolo[1,5-a]pyrimidin-5-yl}-1H-1,3-benzimidazole] | 1.71 µM | 3.9 | 443 nM
12 | NC(=O)C1CCN(Cc2cc3nc(-n4c(C(F)F)nc5ccccc54)cc(N4CCOCC4)n3n2)CC1 [Compound 29, 1-({5-[2-(difluoromethyl)-1H-1,3-benzimidazol-1-yl]-7-(morpholin-4-yl)pyrazolo[1,5-a]pyrimidin-2-yl}methyl)piperidine-4-carboxamide] | 1.86 µM | 7.7 | 240 nM
13 | CC1(O)CCN(Cc2cc3nc(-n4c(C(F)F)nc5ccccc54)cc(N4CCOCC4)n3n2)CC1 [Compound 30, 1-({5-[2-(difluoromethyl)-1H-1,3-benzimidazol-1-yl]-7-(morpholin-4-yl)pyrazolo[1,5-a]pyrimidin-2-yl}methyl)-4-methylpiperidin-4-ol] | 7.55 µM | 12 | 615 nM
14 | OCC1CCN(Cc2cc3nc(-n4c(C(F)F)nc5ccccc54)cc(N4CCOCC4)n3n2)CC1 [Compound 31, [1-({5-[2-(difluoromethyl)-1H-1,3-benzimidazol-1-yl]-7-(morpholin-4-yl)pyrazolo[1,5-a]pyrimidin-2-yl}methyl)piperidin-4-yl]methanol] | 8.32 µM | 14 | 593 nM
15 | N#CC1CCN(Cc2cc3nc(-n4c(C(F)F)nc5ccccc54)cc(N4CCOCC4)n3n2)CC1 [Compound 32, 1-({5-[2-(difluoromethyl)-1H-1,3-benzimidazol-1-yl]-7-(morpholin-4-yl)pyrazolo[1,5-a]pyrimidin-2-yl}methyl)piperidine-4-carbonitrile] | 3.15 µM | 16 | 192 nM
16 | FC(F)c1nc2ccccc2n1-c1cc(N2CCOCC2)n2nc(CN3CCC(N4CCOCC4)CC3)cc2n1 [Compound 33, 2-(difluoromethyl)-1-[7-(morpholin-4-yl)-2-{[4-(morpholin-4-yl)piperidin-1-yl]methyl}pyrazolo[1,5-a]pyrimidin-5-yl]-1H-1,3-benzimidazole] | 4.8 µM | 17 | 276 nM
17 | OC1CCN(Cc2cc3nc(-n4c(C(F)F)nc5ccccc54)cc(N4CCOCC4)n3n2)CC1 [Compound 34, 1-({5-[2-(difluoromethyl)-1H-1,3-benzimidazol-1-yl]-7-(morpholin-4-yl)pyrazolo[1,5-a]pyrimidin-2-yl}methyl)piperidin-4-ol] | 4.32 µM | 7.7 | 561 nM
18 | CC(=O)NC1CCN(Cc2cc3nc(-n4c(C(F)F)nc5ccccc54)cc(N4CCOCC4)n3n2)CC1 [Compound 35, N-[1-({5-[2-(difluoromethyl)-1H-1,3-benzimidazol-1-yl]-7-(morpholin-4-yl)pyrazolo[1,5-a]pyrimidin-2-yl}methyl)piperidin-4-yl]acetamide] | 1.5 µM | 3.4 | 445 nM
19 | CNC(=O)CN1CCN(Cc2cc3nc(-n4c(C(F)F)nc5ccccc54)cc(N4CCOCC4)n3n2)CC1 [Compound 36, 2-[4-({5-[2-(difluoromethyl)-1H-1,3-benzimidazol-1-yl]-7-(morpholin-4-yl)pyrazolo[1,5-a]pyrimidin-2-yl}methyl)piperazin-1-yl]-N-methylacetamide] | 1.25 µM | 20 | 63 nM
20 | CN1CCN(Cc2cc3nc(-n4c(C(F)F)nc5ccccc54)cc(N4CCOCC4)n3n2)CC1 [Compound 37, 2-(difluoromethyl)-1-{2-[(4-methylpiperazin-1-yl)methyl]-7-(morpholin-4-yl)pyrazolo[1,5-a]pyrimidin-5-yl}-1H-1,3-benzimidazole] | 17.7 µM | 50 | 351 nM
21 | CC(C)N1CCN(Cc2cc3nc(-n4c(C(F)F)nc5ccccc54)cc(N4CCOCC4)n3n2)CC1 [Compound 38, 2-(difluoromethyl)-1-[7-(morpholin-4-yl)-2-{[4-(propan-2-yl)piperazin-1-yl]methyl}pyrazolo[1,5-a]pyrimidin-5-yl]-1H-1,3-benzimidazole] | 13.3 µM | 351 | 38 nM
22 | CC(C)(C)N1CCN(C(=O)c2cc3nc(-n4c(C(F)F)nc5ccccc54)cc(N4CCOCC4)n3n2)CC1 [Compound 40, 1-[2-(4-tert-butylpiperazine-1-carbonyl)-7-(morpholin-4-yl)pyrazolo[1,5-a]pyrimidin-5-yl]-2-(difluoromethyl)-1H-1,3-benzimidazole] | 48.8 µM | 581 | 84 nM
23 | CC(C)(O)C1CCN(C(=O)c2cc3nc(-n4c(C(F)F)nc5ccccc54)cc(N4CCOCC4)n3n2)CC1 [Compound 41] | 2.48 µM | 25 | 101 nM
24 | CC(C)(C(N)=O)N1CCN(C(=O)c2cc3nc(-n4c(C(F)F)nc5ccccc54)cc(N4CCOCC4)n3n2)CC1 [Compound 42, 2-(4-{5-[2-(difluoromethyl)-1H-1,3-benzimidazol-1-yl]-7-(morpholin-4-yl)pyrazolo[1,5-a]pyrimidine-2-carbonyl}piperazin-1-yl)-2-methylpropanamide] | 3.59 µM | 48 | 74 nM
